We go through 17 compounds from PubChem BioAssay (NCI).

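Five concentrations, 48 hours, 96-well plates. TGI is the concentration that stops growth completely.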

The test system of one assay is EKVX NSCLC. Description: NCI anticancer screen, dose series, 48 h.
`CCOC(=O)c1cccn1S(=O)(=O)c1cc(Cl)ccc1NC(=O)CC` gave a TGI above 100 µM.

`CCCCOC(=O)C1C2CCC(O2)C1C(=O)OCCCC` (stereo not given) registered a TGI above 100 µM.

For the compound `CSc1nc(C#N)c(/N=C\N(C)C)n1C`, the TGI was above 100 µM.

In another assay the test system is HCT-116 colon. Kind of assay: NCI anticancer screen, dose series, 48 h.
On to `O=C1/C(=C/c2cccc(Br)c2)CCc2ccccc21`, for which the TGI was 19.9 µM.

As for `C[C@]12CCC(=O)C=C1CC[C@@H]1[C@@H]2CC[C@]2(C)C(=O)NC(=O)C[C@@H]12`, the TGI was above 100 µM.

For the compound `COc1cc2c(oc(=O)c3c4oc([Si](C)(C)C)cc4cc(OC)c23)c2cccc(OCc3ccccc3)c12`, the TGI is above 100 µM.

With `CC(=O)OCC1=C(CCC#N)N2C(=O)C(NC(=O)Cc3cccs3)C2S(=O)C1` (stereo not given), the TGI is above 100 µM.

For `O=c1c2c(oc3ccccc13)-c1ccccc1OC2`, the TGI was above 100 µM.

Consider `O=C1CCCCC/C1=C\c1cccc(Cl)c1`, for which the TGI was above 100 µM.

`COC(=O)N/N=C(\Cc1ccccc1)CN(C)C` showed a TGI above 100 µM.

`Nc1ncnn2c(C3OC(CO)C(O)C3O)ccc12` (stereo not given) displayed a TGI of 0.151 µM.

`COc1ccc2c3c1O[C@]1(C)C34CCN(C)C(C2)C42C=C[C@@]1(OC)c1c(O)ccc(O)c12` displayed a TGI above 100 µM.

The compound `C[N+](C)(C)CC(=O)N/N=C/c1oc(-c2c(O)ccc3ccccc23)c(-c2c(O)ccc3ccccc23)c1[N+](=O)[O-]` came in with a TGI of 24.7 µM.

`COC(=O)[C@@H]1CN(C(C)=O)C(=O)N1` returned a TGI above 100 µM.

Turning to `COC(=O)c1ccc(C)cc1CC1Cc2cc(C)ccc2C1=O` (stereo not given), the TGI is above 100 µM.

`C/C(CC(=O)Nc1ccc([N+](=O)[O-])cc1)=N\NC(N)=O`: the TGI is above 100 µM.

For `CCOC(=O)c1cccn1S(=O)(=O)c1cc(Cl)ccc1NC(=O)CC`, the TGI was above 100 µM.

`CCCCOC(=O)C1C2CCC(O2)C1C(=O)OCCCC` (stereo not given) had a TGI above 65.1 µM.

The compound `CSc1nc(C#N)c(/N=C\N(C)C)n1C` yielded a TGI above 100 µM.

Another assay has as its system HCT-15 colon. Description: NCI anticancer screen, dose series, 48 h.
Take `O=C1/C(=C/c2cccc(Br)c2)CCc2ccccc21`: the TGI was determined as 24.1 µM.

Compound `C[C@]12CCC(=O)C=C1CC[C@@H]1[C@@H]2CC[C@]2(C)C(=O)NC(=O)C[C@@H]12` registered a TGI above 100 µM.

`COc1cc2c(oc(=O)c3c4oc([Si](C)(C)C)cc4cc(OC)c23)c2cccc(OCc3ccccc3)c12`: the TGI is above 100 µM.

The compound `CC(=O)OCC1=C(CCC#N)N2C(=O)C(NC(=O)Cc3cccs3)C2S(=O)C1` (stereo not given) came in with a TGI above 100 µM.

Consider `O=c1c2c(oc3ccccc13)-c1ccccc1OC2`, for which the TGI was above 100 µM.

For the compound `CCSc1[nH]c(NC(=S)NC(=O)c2ccccc2Cl)c(C(N)=O)c1C(N)=O`, the TGI is above 10 µM.

`O=C1CCCCC/C1=C\c1cccc(Cl)c1` returned a TGI above 100 µM.

Regarding `Nc1ncnn2c(C3OC(CO)C(O)C3O)ccc12` (stereo not given), the TGI was 0.771 µM.

In the case of `COC(=O)[C@@H]1CN(C(C)=O)C(=O)N1`, the TGI was above 100 µM.

Turning to `COC(=O)c1ccc(C)cc1CC1Cc2cc(C)ccc2C1=O` (stereo not given), the TGI was above 100 µM.

The compound `C/C(CC(=O)Nc1ccc([N+](=O)[O-])cc1)=N\NC(N)=O` gave a TGI above 100 µM.

With `CCOC(=O)c1cccn1S(=O)(=O)c1cc(Cl)ccc1NC(=O)CC`, the TGI is above 100 µM.

Regarding `CCCCOC(=O)C1C2CCC(O2)C1C(=O)OCCCC` (stereo not given), the TGI is above 100 µM.

Compound `CSc1nc(C#N)c(/N=C\N(C)C)n1C` registered a TGI above 100 µM.

A further assay relates to HL-60(TB) leukemia. Description: NCI anticancer screen, dose series, 48 h.
For the compound `O=C1/C(=C/c2cccc(Br)c2)CCc2ccccc21`, the TGI stood at 28.3 µM.

Compound `C[C@]12CCC(=O)C=C1CC[C@@H]1[C@@H]2CC[C@]2(C)C(=O)NC(=O)C[C@@H]12` returned a TGI above 100 µM.

`COc1cc2c(oc(=O)c3c4oc([Si](C)(C)C)cc4cc(OC)c23)c2cccc(OCc3ccccc3)c12`: the TGI is above 92 µM.

In the case of `CC(=O)OCC1=C(CCC#N)N2C(=O)C(NC(=O)Cc3cccs3)C2S(=O)C1` (stereo not given), the TGI is above 100 µM.

As for `CCSc1[nH]c(NC(=S)NC(=O)c2ccccc2Cl)c(C(N)=O)c1C(N)=O`, the TGI is above 10 µM.

Consider `COC(=O)N/N=C(\Cc1ccccc1)CN(C)C`, for which the TGI was above 100 µM.

`Nc1ncnn2c(C3OC(CO)C(O)C3O)ccc12` (stereo not given) gave a TGI of 0.328 µM.

For `COc1ccc2c3c1O[C@]1(C)C34CCN(C)C(C2)C42C=C[C@@]1(OC)c1c(O)ccc(O)c12`, the TGI is above 100 µM.

`C[N+](C)(C)CC(=O)N/N=C/c1oc(-c2c(O)ccc3ccccc23)c(-c2c(O)ccc3ccccc23)c1[N+](=O)[O-]` had a TGI of 66.6 µM.

`COC(=O)[C@@H]1CN(C(C)=O)C(=O)N1` displayed a TGI above 100 µM.

Consider `COC(=O)c1ccc(C)cc1CC1Cc2cc(C)ccc2C1=O` (stereo not given), for which the TGI is above 100 µM.

For the compound `C/C(CC(=O)Nc1ccc([N+](=O)[O-])cc1)=N\NC(N)=O`, the TGI was above 100 µM.

For `CCOC(=O)c1cccn1S(=O)(=O)c1cc(Cl)ccc1NC(=O)CC`, the TGI is above 100 µM.

On to `CCCCOC(=O)C1C2CCC(O2)C1C(=O)OCCCC` (stereo not given), for which the TGI was above 100 µM.

`CSc1nc(C#N)c(/N=C\N(C)C)n1C`: the TGI is above 100 µM.

Another assay concerns HOP-62 NSCLC. Kind of assay: NCI anticancer screen, dose series, 48 h.
The compound `O=C1/C(=C/c2cccc(Br)c2)CCc2ccccc21` registered a TGI of 30.1 µM.

For the compound `C[C@]12CCC(=O)C=C1CC[C@@H]1[C@@H]2CC[C@]2(C)C(=O)NC(=O)C[C@@H]12`, the TGI was above 100 µM.

Regarding `COc1cc2c(oc(=O)c3c4oc([Si](C)(C)C)cc4cc(OC)c23)c2cccc(OCc3ccccc3)c12`, the TGI stood at 47.6 µM.

Compound `CC(=O)OCC1=C(CCC#N)N2C(=O)C(NC(=O)Cc3cccs3)C2S(=O)C1` (stereo not given) registered a TGI above 100 µM.

In turn, `O=c1c2c(oc3ccccc13)-c1ccccc1OC2` returned a TGI above 100 µM.

As for `CCSc1[nH]c(NC(=S)NC(=O)c2ccccc2Cl)c(C(N)=O)c1C(N)=O`, the TGI is above 10 µM.

Regarding `O=C1CCCCC/C1=C\c1cccc(Cl)c1`, the TGI was above 100 µM.

Consider `COC(=O)N/N=C(\Cc1ccccc1)CN(C)C`, for which the TGI was above 100 µM.

As for `Nc1ncnn2c(C3OC(CO)C(O)C3O)ccc12` (stereo not given), the TGI is 1.48 µM.

In turn, `COc1ccc2c3c1O[C@]1(C)C34CCN(C)C(C2)C42C=C[C@@]1(OC)c1c(O)ccc(O)c12` had a TGI above 100 µM.

`COC(=O)[C@@H]1CN(C(C)=O)C(=O)N1` came in with a TGI above 100 µM.

`COC(=O)c1ccc(C)cc1CC1Cc2cc(C)ccc2C1=O` (stereo not given) returned a TGI above 100 µM.

Compound `C/C(CC(=O)Nc1ccc([N+](=O)[O-])cc1)=N\NC(N)=O` returned a TGI above 100 µM.

In turn, `CCOC(=O)c1cccn1S(=O)(=O)c1cc(Cl)ccc1NC(=O)CC` had a TGI above 100 µM.

In turn, `CCCCOC(=O)C1C2CCC(O2)C1C(=O)OCCCC` (stereo not given) returned a TGI above 100 µM.

`CSc1nc(C#N)c(/N=C\N(C)C)n1C` had a TGI above 100 µM.

In the next assay the test system is HOP-92 NSCLC. Description: NCI anticancer screen, dose series, 48 h.
As to `O=C1/C(=C/c2cccc(Br)c2)CCc2ccccc21`, the TGI was 28.2 µM.

Compound `C[C@]12CCC(=O)C=C1CC[C@@H]1[C@@H]2CC[C@]2(C)C(=O)NC(=O)C[C@@H]12` showed a TGI above 100 µM.

Take `COc1cc2c(oc(=O)c3c4oc([Si](C)(C)C)cc4cc(OC)c23)c2cccc(OCc3ccccc3)c12`: the TGI is above 67.2 µM.

`CC(=O)OCC1=C(CCC#N)N2C(=O)C(NC(=O)Cc3cccs3)C2S(=O)C1` (stereo not given) yielded a TGI above 100 µM.

As for `CCSc1[nH]c(NC(=S)NC(=O)c2ccccc2Cl)c(C(N)=O)c1C(N)=O`, the TGI is above 10 µM.

`O=C1CCCCC/C1=C\c1cccc(Cl)c1` returned a TGI above 100 µM.
